# How the values were obtained:
# [1] = molecular target: Acetylcholinesterase (Electrophorus electricus, UniProt O42275); test: Inhibition of electric eel AChE using acetylthiocholine iodide as substrate preincubated for 30 mins followed by substrate addition and measured after 5 mins by DTNB-reagent based Ellman's method
# [2] = tested on: L1210; test: Cytotoxicity against mouse L1210 cells assessed as inhibition of cell growth; type: functional, cell-based
# [3] = tested on: KB; test: Cytotoxicity against human KB cells assessed as inhibition of cell growth; type: functional, cell-based
# Acetylcholinesterase, sequence (O42275 whole entry): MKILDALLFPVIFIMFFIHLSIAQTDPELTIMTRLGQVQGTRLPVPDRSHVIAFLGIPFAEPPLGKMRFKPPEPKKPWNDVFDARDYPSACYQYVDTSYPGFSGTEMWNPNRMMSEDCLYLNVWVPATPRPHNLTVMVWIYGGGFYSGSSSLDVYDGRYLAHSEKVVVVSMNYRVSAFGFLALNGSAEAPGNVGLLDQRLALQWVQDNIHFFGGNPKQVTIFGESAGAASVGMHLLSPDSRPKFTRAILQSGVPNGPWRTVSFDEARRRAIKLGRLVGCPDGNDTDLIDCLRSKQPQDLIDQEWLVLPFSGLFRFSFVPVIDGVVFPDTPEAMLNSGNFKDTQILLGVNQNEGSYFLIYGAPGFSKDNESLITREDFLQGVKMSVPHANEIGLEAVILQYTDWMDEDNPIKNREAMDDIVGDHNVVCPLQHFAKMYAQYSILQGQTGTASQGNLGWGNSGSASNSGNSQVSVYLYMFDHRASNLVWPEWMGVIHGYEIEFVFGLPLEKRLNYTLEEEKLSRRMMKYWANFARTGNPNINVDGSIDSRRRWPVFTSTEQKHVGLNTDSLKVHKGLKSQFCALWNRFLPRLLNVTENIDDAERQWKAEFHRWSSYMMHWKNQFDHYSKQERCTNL
Structure (SMILES),IC50 [1] [µM],IC50 [2] [µg/mL],IC50 [3] [µg/mL]
O[C@H]1CCCC[N+]23C[C@@H]4C=C5CC/C=C\CCCCN6CC[C@@H]4[C@](CC[C@H]12)(C6)[C@H]53,350,> 10,> 10
O[C@@H]1CCCC[N+]23C[C@@H]4C=C5CC/C=C\CCCCN6CC[C@@H]4[C@](CC[C@H]12)(C6)[C@H]53,470,> 10,> 10

# — ChEMBL document CHEMBL5137118, “Zamamiphidins B and C, Manzamine-Related Alkaloids from an Amphimedon sp. Marine Sponge Collected in Okinawa” (J Nat Prod, 2022)
